The subject of test [1] is MDA-MB-231 breast cancer cells. Particulars: high PPARγ expressing cells, 24 hours. Here is the method:
(§1) To detect breast cancer cell death via cell viability assay, the mitochondrial activity, as an index of cell viability, was measured using the MTT method (Mosmann, T. J Immunol Methods, 1983; 65: 55-63). Briefly, cells were treated in triplicates in 96-well plate. After completion of the experimental period, 20 μl of MTT reagent (5 mg/ml) was added per well of culture (containing 100 μl treatment media). The reaction was allowed to proceed for 4 to 6 h at 37° C. SDS (10%) was then added (200 μl/well) overnight and the absorption at 595 nm measured.

In test [2] the test system is SHEP1 and SHSY5Y neuroblastoma cells. Particulars: 24 hours. As for the experimental part:
as §1

The subject of test [3] is SHEP1 cells. Particulars: mPPARg PCMX versus empty vector, 0 to 5 uM. Here is the method:
as §1

Test [4] has as its system T47D breast cancer cells. Particulars: low PPARγ expressing cells, 24 hours. As for the experimental part:
as §1

Test [5] relates to PPARγ. The settings on record: SHEP1 cells, 0 to 5 uM, 18 hours. Here is the method:
To determine if C19H24N3O5S5Pr binds to PPARγ, neuroblastoma SHEP1 cells were transiently co-transfected with either empty vector or a DNA-binding mutant of PPARγ, 3×PPPRE luciferase plasmid and renilla plasmid for transfection efficiency. Forty eight hours following transfection, the cells were exposed to increased concentration (0 to 5 uM) of C19H24N3O5S5Pr for 18 hours. PPARγ activity was calculated as luciferase RLU/renilla/μg total protein.

The subject of test [6] is PTEN, RhoB, MnSOD. Particulars: SHEP-1 and MDA-MB-231 cells, 5 μM and 10 μM, dose-dependent. Here is the method: Whole cell lysates were prepared with RIPA lysis buffer containing 10 mM Tris-HCL pH7.4, 30 mM NaCl, 1 mM EDTA, 1% Nonidet P-40, supplemented with 1 mM Na3VO4, 1 μg/ml leupeptin, 1 μg/ml pepstatin A, 1 μg/ml aprotinin and 1 mM PMSF before use. Protein concentration was determined for each sample and equal amounts of protein were boiled for 5 min for other proteins, with 1×SDS sample buffer and resolved by 8% SDS-PAGE. Thereafter, proteins were transferred onto nitrocellulose membrane, blocked for 1 h at room temperature with 5% non-fat milk, and incubated overnight at 4° C. with the primary antibody. After probing with secondary antibody for 1 hr at 25° C., protein bands were detected by using the Supersignal West Pico Chemiluminescence (Pierce). β-actin antibody was used as a loading control.
Referring to FIGS. 14 and 15, SHEP-1 neuroblastoma cells and MDA-MB-231 breast cancer cells were treated with different concentrations of C19H24N3O5S5Pr at 5 μM and 10 μM for 4 hr, 8 hr, 18 hr, 241r, 48 hr and 72 hr. Whole cell extracts were prepared and protein expression was examined by Western Blot analysis. 70 μg of total protein was loaded per lane for each experiment. The levels of protein were determined by using specific primary antibody followed by peroxidise-conjugated secondary antibody and visualization by enhanced chemiluminescence.

The target in test [7] is T1, pCMX-Gal-mPPARγ-LBD (Mus musculus, UniProt P37238).
T1 construct: expressed in transfected cells; host or cells: SHEP-1 cells
T1 sequence (P37238 238-503 limits assumed): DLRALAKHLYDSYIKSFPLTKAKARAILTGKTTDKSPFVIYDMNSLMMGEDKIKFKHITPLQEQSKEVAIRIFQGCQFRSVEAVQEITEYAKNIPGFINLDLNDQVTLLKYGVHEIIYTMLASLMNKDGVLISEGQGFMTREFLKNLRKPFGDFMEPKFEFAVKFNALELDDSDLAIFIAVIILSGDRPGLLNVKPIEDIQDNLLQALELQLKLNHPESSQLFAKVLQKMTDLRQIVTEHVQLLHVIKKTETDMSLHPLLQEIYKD
In words: Gal4 chimeric receptor luciferase reporter (Method 2). It is filed as cell-based. The settings on record: SHEP-1 cells, 3 μM, 5 μM, 10 μM and 20 μM. The text has this:
In Method 2, SHEP-1 cancer cells were transfected with a reporter gene containing four copies of a Gal4 binding site (pMH100x4-TK-Luc) and chimeric receptors of a single PPAR isoform (pCMX-Gal-mPPARα-LBD, pCMX-Gal-mPPARδ-LBD, or pCMX-Gal-mPPARγ-LBD, respectively) as previously described in Kim et al, Toxicological Sciences, 85, (2005), pp. 585-593. When C19H24N3O5S5Pr binds to the ligand binding domain (LBD) of the chimeric receptor, the DNA binding domain of Gal4 binds to co-transfected Gal4 binding site and initiates transcription of the firefly luciferase.
A general note: A reporter such as luciferase makes a cellular process visible.

Test [8] concerns SHEP-1 and MDA-MB-231 cancer cells. In words: Morphological changes of cancer cells. The settings on record: SHEP-1 5 μM, MDA-MB-231 10 μM, compound alone. It is filed as cell-based.
In test [9] the test system is PARP. Particulars: SHEP-1 cells, 5 μM and 10 μM, 24 hrs.

Molecules are shown by their SMILES.

Consider `CS(C)=O.CS(C)=O.[O-][n+]1ccccc1[S-].[O-][n+]1ccccc1[S-].[O-][n+]1ccccc1[S-].[Pr+3]` [C19H24N3O5S5Pr, praseodymium (2-mercaptopyridine N-oxide)(dimethylsulfoxide)], for which the “cell viability (MTT)” value in test [1] was “inhibits growth”. Besides, the “cell viability (MTT), SHEP1 versus SHSY5Y cells” value in [2] was “has a greater growth of SHEP1 cells compared to SHSY5Y cells”. Moreover, in [3], the “cell viability on overexpression of wild type PPARγ” value is listed as “greater decrease in cell viability”. Further, in test [4], the “cell viability (MTT)” value is listed as “remained viable”. In addition, the “PPARγ activation on overexpression of DNA-binding mutant PPARγ” value in [5] is “significantly reduced the ability of C19H24N3O5S5Pr to activate PPARγ”. Also, in test [6], the MnSOD protein expression entry was “downregulated”, the PTEN protein expression result is given as “upregulated” and the RhoB protein expression entry is “upregulated”. Also, in [7], the “luciferase activity, PPARγ LBD chimeric receptor” value is recorded as “induction of luciferase activity”. Also, the cell morphology entry in test [8] was “rounded up and also lower in cell density”. Moreover, the “PARP cleavage (80 kDa fragment)” value in [9] is recorded as “PARP cleavage”.
